What was measured:
[1] = biological target: T1, wild-type human CFTR (Homo sapiens, UniProt P13569); assay: CFTR Cl− channels recorded in excised inside-out membrane patches from C127 cells (patch-clamp); format: biochemical; settings: for effect on CFTR Cl− currents: PKA and ATP present
T1 construct: expressed in transfected cells
Experimental: For electrophysiological experiments, we used mouse mammary epithelial cells (C127 cells) stably expressing wild-type human CFTR (12). C127 cells expressing wild-type CFTR were cultured as previously described (10). Cells were seeded onto glass coverslips and used within 48 h.
The established sign convention was used throughout; currents produced by positive charge moving from intra- to extracellular solutions (anions moving in the opposite direction) are shown as positive currents.
[…] […] All experiments were conducted at 37° C.
PKA was maintained in the intracellular solution for the duration of experiments. Unless otherwise stated, voltage was −50 mV.
In time course studies, each point is the average current for a 4 s period with data points collected continuously; no data were collected while solutions were changed. Average current (I) for a specific intervention was determined as the average of all the data points collected during the intervention. […] Mean data were fitted to a linear form of equation (1) using linear least-squares regression to yield Ki and n values.
To measure single-channel current amplitude (i), Gaussian distributions were fitted to current amplitude histograms. For open probability (Po) and kinetic analyses, lists of open and closed times were created using a half-amplitude crossing criterion for event detection. Transitions <1 ms in duration were excluded from the analyses. Po was calculated using the equation: Po=(T1+T2+ . . . +TN)/(NTtot), (2) where N is the number of channels; Ttot is the total time analysed, and T1 is the time that one or more channels are open, T2 is the time two or more channels are open and so on. Only membrane patches that contained a single active channel were used for single-channel kinetic analyses.
To investigate whether inhibition of CFTR by fluorescein derivatives was voltage dependent, we used voltage ramp protocols. Macroscopic current-voltage (I-V) relationships were obtained in the absence and presence of fluorescein derivatives by averaging currents generated by 15-30 ramps of voltage each of 2 s duration; holding voltage was −50 mV. Basal currents recorded in the absence of PKA and ATP were subtracted from those recorded in the absence and presence of fluorescein derivatives to determine the effect of these agents on CFTR Cl^− currents.

[2] = tested on: Type I Madin-Darby canine kidney (MDCK) cells; assay: Cyst growth of MDCK cells in collagen gels with cAMP agonists; format: cell-based; settings: 40 μM; days 12 to 21
Experimental: (§1) For cyst growth and cell proliferation experiments, we used Type I Madin-Darby canine kidney (MDCK) cells. We chose Type I MDCK cells because they form cysts when grown in collagen gels in the presence of cAMP agonists (26) and because they express the CFTR Cl^− channel (27). MDCK cells were cultured in MDCK media (a 1:1 mixture of Dulbecco's Modified Eagle Medium (DMEM) and Ham's F-12 nutrient medium supplemented with 100 U ml^−1 penicillin, and 100 μg ml^−1 streptomycin and either 10% fetal bovine serum (FBS; cyst growth) or 5% FBS and 1% insulin-transferrin-selenium-X (ITS-X) supplement (cell proliferation); all from Life Technologies Ltd, Paisley, UK) at 37° C. in a humidified atmosphere of 5% CO2.
To grow cysts, MDCK cells were cultured in collagen gels using a modification of the method of Grantham et al. (26). Cells were trypsinized with 0.25% (wt/vol) trypsin for 30 minutes at 37° C., diluted with MDCK media containing 10% FBS to form a suspension of between 1-3×10^4 cells ml^−1, and aliquoted into individual wells of a 24-well plate (0.1 ml per well). Each well contained 0.4 ml of ice-cold Vitrogen (3.0 mg ml^−1 collagen; Cohesion Technologies Inc., Palo Alto, USA) supplemented with 10% (vol/vol) 10× minimum essential medium, 10 mM N-[2-hydroxyethyl]piperazine-N′-[2-ethanesulphonic acid] (Hepes), 27 mM NaHCO3, 100 U ml^−1 penicillin, and 100 μg ml^−1 streptomycin, and adjusted to pH 7.4 with NaOH. The 24-well plate was gently agitated to distribute cells throughout the Vitrogen and incubated in a water bath at 37° C. for 90 minutes to promote gelation of the Vitrogen.
After gelation, 1.5 ml MDCK media containing 10% FBS was added to each well of the 24-well plate. To promote cyst growth, we added cAMP agonists (forskolin (10 μM), 3-isobutyl-1-methylxanthine (IBMX; 100 μM), and 8-(4-chlorophenylthio) adenosine 3′:5′-cyclic monophosphate (CPT-cAMP; 500 μM)) to the MDCK media. Plates were maintained at 37° C. in a humidified atmosphere of 5% CO2 and the MDCK media containing cAMP agonists changed every three days.
Twelve days after seeding collagen gels with MDCK cells, cysts were readily detected at ×1000 magnification using an inverted microscope with phase contrast optics (Leica, model DMIL, Milton Keynes, UK). To test the effect of CFTR modulators on cyst growth, drugs were added to MDCK media in the continued presence of cAMP agonists. MDCK media containing cAMP agonists and CFTR modulators was changed every 3 days for a total period of 9 days. Photographs of individual cysts were taken before the addition of CFTR modulators and at three day intervals over the duration of the experiment. To identify individual cysts, each cyst was assigned a unique reference number using a grid placed below the 24-well plate.
The diameter of cysts was measured directly from photographs of cysts using images that had been magnified by identical amounts. By assuming that cysts are spherical in shape, we calculated cyst volume ( 4/3·π·r^3).

[3] = tested on: Type I MDCK cells; assay: Proliferation of MDCK cells (cell counting); format: cell-based, canine
Experimental: as §1
To test the effect of CFTR modulators on the proliferation of MDCK cells, we used Type I MDCK cells grown in media containing 5% FBS and 1% ITS-X supplement. On day −1, MDCK cells were seeded at 7.5×10^4 cells ml^−1 in 35 mm dishes containing MDCK media with 1% FBS and 1% ITS-X supplement. On day 0, the concentration of FBS was reduced further to 0.01% and CFTR modulators added to the MDCK media. MDCK media containing CFTR modulators was changed every 2 days for a total period of 6 days. To determine the number of cells per 35 mm dish, Type I MDCK cells were harvested using trypsin (0.25% wt/vol), centrifuged at 1200 rpm for 5 min and resuspended in 1 ml of MDCK media before counting using a haemocytometer.

T1 sequence (P13569 whole entry): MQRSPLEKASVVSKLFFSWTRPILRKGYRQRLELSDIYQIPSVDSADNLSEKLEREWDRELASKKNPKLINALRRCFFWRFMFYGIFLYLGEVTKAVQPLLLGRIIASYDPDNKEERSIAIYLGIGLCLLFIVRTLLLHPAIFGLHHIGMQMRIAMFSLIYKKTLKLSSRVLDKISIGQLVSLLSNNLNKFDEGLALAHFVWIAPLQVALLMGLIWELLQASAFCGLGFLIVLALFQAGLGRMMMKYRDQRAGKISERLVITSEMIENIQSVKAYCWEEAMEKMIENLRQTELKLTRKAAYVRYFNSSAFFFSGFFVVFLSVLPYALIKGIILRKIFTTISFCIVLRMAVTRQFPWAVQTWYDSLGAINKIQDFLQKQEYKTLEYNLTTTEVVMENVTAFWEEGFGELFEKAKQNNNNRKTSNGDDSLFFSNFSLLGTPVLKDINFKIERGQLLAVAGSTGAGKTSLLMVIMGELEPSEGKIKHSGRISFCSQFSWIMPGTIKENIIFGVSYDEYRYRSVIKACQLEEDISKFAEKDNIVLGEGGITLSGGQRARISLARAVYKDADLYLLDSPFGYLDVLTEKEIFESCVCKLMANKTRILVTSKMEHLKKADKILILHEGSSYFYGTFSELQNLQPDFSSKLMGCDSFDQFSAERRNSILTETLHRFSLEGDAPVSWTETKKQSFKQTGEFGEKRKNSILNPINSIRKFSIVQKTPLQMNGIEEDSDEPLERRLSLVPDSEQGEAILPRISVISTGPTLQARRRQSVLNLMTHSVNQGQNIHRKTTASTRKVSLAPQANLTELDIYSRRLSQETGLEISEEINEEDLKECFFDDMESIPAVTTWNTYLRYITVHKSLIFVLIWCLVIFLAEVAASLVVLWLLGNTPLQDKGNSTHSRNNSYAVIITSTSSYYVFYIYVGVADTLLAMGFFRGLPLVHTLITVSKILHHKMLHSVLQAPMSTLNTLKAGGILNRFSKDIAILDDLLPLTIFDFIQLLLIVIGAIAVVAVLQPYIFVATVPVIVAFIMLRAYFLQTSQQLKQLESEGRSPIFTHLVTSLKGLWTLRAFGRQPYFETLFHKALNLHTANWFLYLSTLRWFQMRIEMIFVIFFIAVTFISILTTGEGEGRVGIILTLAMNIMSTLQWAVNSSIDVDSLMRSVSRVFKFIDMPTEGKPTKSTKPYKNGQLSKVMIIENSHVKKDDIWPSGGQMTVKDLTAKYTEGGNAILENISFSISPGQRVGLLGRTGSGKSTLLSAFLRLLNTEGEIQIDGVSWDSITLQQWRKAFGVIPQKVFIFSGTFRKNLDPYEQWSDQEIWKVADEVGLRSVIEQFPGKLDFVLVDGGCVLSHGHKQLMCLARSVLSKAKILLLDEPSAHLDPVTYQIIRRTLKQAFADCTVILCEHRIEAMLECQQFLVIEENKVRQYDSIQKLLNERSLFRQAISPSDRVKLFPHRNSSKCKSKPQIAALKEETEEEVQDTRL

O=C(O)c1c(Cl)c(Cl)c(Cl)c(Cl)c1-c1c2cc(Br)c(=O)c(Br)c-2oc2c(Br)c(O)c(Br)cc12 [phloxine B]
n (slope factor, Hill coefficient) of CFTR inhibition [1]: 2 | potency of CFTR inhibition compared with glibenclamide [1]: potency greater than or equal to that of glibenclamide | reversibility of CFTR inhibition [1]: partially reversible | effect of ATP (5 mM) on inhibition of CFTR Cl− currents ([1]; 20 μM): fails to relieve | pattern of channel gating ([1]; 20 μM): dramatically altered the pattern of channel gating | open probability (Po) ([1]; 20 μM, P<0.05 vs control): significantly decreased | single-channel current amplitude (i) ([1]; 20 μM, P<0.05 vs control): significantly decreased | channel block at positive voltages ([1]; 40 μM, symmetrical 147 mM Cl−): relieved | effect on CFTR Cl− currents at negative voltages ([1]; 40 μM, symmetrical 147 mM Cl−): decreased CFTR Cl^− currents | effect on CFTR Cl− currents ([1]; 1-5 μM in intracellular solution): stimulated | effect on CFTR Cl− currents ([1]; 20-50 μM in intracellular solution): concentration-dependent decrease | rank order of potency for CFTR inhibition ([1]; concentration-response, FIG. 3): bengal rose B>phloxine B>eosin Y≧tetrachlorofluorescein>>fluorescein | stimulation of CFTR channel activity ([1]; concentration-response, FIG. 3): stimulated channel activity | effect on activity of CFTR Cl− channels ([1]; in the absence of either ATP or PKA): without effect | effect on channel block by glibenclamide (50 μM) ([1]; phloxine B 1 μM): failed to prevent channel block | I (average CFTR Cl− current) relative to control ([1]; phloxine B 20 μM together with glibenclamide 50 μM): 10±2 % of the control value | I (average CFTR Cl− current) relative to control ([1]; phloxine B 20 μM, ATP 5 mM): 51±5 % of the control value | I (average CFTR Cl− current) relative to control ([1]; phloxine B 20 μM, […]): 56±6 % of the control value | I (average CFTR Cl− current) relative to control ([1]; phloxine B 20 μM, […], listed as Phloxine B): 59±4 % of the control value | voltage-dependence of CFTR inhibition ([1]; voltage ramp ±100 mV, symmetrical 147 mM Cl−, ATP 1 mM): voltage-dependent | size of cysts (phase-contrast) [2]: visible decrease in the size of cysts | inhibition of cell growth in the presence of cAMP agonists [3]: unaffected by cAMP agonists | rank order of prevention of cell growth [3]: ouabain (1 μM)=phloxine B (40 μM)=genistein (100 μM)=NPPB (400 μM)>glibenclamide (100 μM) | cell growth (number of cells), day 0 to 6 ([3]; 40 μM): prevented cell growth
